Tests used:
[1] = system: S-nitrosylation at the Golgi; assay: Anti-S-nitrosocysteine immunostaining of T-47D cells; type: cell-based
Description: (§1) Immunofluorescence staining. Cells were cultured on a glass bottom 3.5 cm imaging dish to reach 60% confluency. […] Treated cells were then washed three times with 1× PBS (pH 7.4) and fixed using, 4% paraformaldehyde at room temperature (RT, 15 min). Subsequently, cells were permeabilized using 0.25% triton X-100 followed by blocking using 3% BSA in 1× PBS. Cells were then incubated with indicated primary antibodies—mouse monoclonal anti-eNOS antibody (SantaCruz Cat #sc-376751), Polyclonal Anti-S-nitrosocysteine antibody (Abeam Cat #ab94930 or Abeam Cat #ab50185), Rabbit polyclonal Anti-Giantin antibody (Abeam Cat #ab24586) or Mouse monoclonal Anti-GM130 antibody (BD Biosciences Cat #610822) in blocking buffer (3% BSA in 1× 4 PBS) for 1 hour at RT. Cells were then washed for 5 min with 1× PBS (3×). Respective secondary antibodies conjugated with either Alexafluor 488 or Alexafluor 647 were added to the cells and incubated for 1 hr at RT. Cells were washed again to remove excess secondary antibody using 1× PBS for 5 min (3×). Hoechst 33342 (5 μM) was added 10 min prior to imaging to stain nuclear DNA. Cells were then imaged on a Leica SP8 laser scanning confocal microscope using excitation wavelengths 405 nm (Hoechst), 488 nm (AlexaFluor 488) and 647 nm (AlexaFluor 647). Images were processed using Fiji and maximum z-projection of 2-3 z-planes are used in representative images.
In order to address the significance of the […] population of NOS3 at the TGN, T-47D cells were immunostained using an antibody specific to S-nitrosocysteine.
Similar observations were made in MCF-7 cells upon NO depletion (FIG. 23). These studies reveal that the Golgi is a cellular hot-spot for 5-nitrosylation of proteins by NOS3, where it is essential for the maintenance of Golgi architecture in breast cancer cells. […] In addition to Golgi fragmentation, NO scavenging also hampered cell growth by inducing cell sensescence (FIG. 24).

T-47D cells = assay: Golgi fragmentation (Giantin/GM130 immunofluorescence); type: cell-based
Description: as §1
Golgi fragmentation was quantified with immunofluorescence images of Golgi structural protein Giantin. Merge images of Hoechst and Giantin allowed identification of cell numbers and enumeration of Golgi fragments per cell (≤3 Golgi fragments per cell was considered intact Golgi) (Lee, J. E. et al. Dependence of Golgi apparatus integrity on nitric oxide in vascular cells: implications in pulmonary arterial hypertension. Am. J. Physiol. Heart Circ. Physiol. 300, H1141-58 (2011)). […]
Small molecule inhibitors were then screened to identify the molecular pathway by which NOS3 inhibition induces Golgi fragmentation. This is based on the rationale that inhibiting a protein on this pathway should also block methylene blue-induced Golgi fragmentation. […] A range of small molecule inhibitors against kinases that have previously ascribed roles in Golgi fragmentation were then used. DNA-PK with NU7441 was ruled out (Farber-Katz, S. E. et al. DNA damage triggers Golgi dispersal via DNA-PK and GOLPH3. Cell 156, 413-427 (2014)). Compounds containing an indirubin core have broad specificity for Cyclin dependent kinases (CDKs) and Src kinases. […] CDK1, CDK2 and CDK5 were ruled out, using (R)-Roscovitine (Rosco).

NOS3 = biological target: T1, NOS3 (Homo sapiens, UniProt P29474); assay: Steady state NOS3 activity imaging at plasma membrane and TGN with NOckout probes; type: cell-based; conditions: T-47D cells
T1 construct: endogenous, basal NOS3 activity was estimated at each of these sub-cellular locations in T-47D cells; endogenous in cells; host or cells: T-47D cells
Description: Image acquisition. T-47D cells were maintained as mentioned above in the cell culture section. Cells were washed twice with Hank's balanced salt solution (HBSS) before incubating them with 500 nM NOckout^TGN for 30 min or 500 nM NOckout^PM for 10 min at 37° C. followed by 3 washes with HBSS solution to remove any unloaded sensors. For steady state imaging (FIG. 1), cells were treated with indicated agonists or antagonists for 1 hr in complete RPMI-1640 medium. Care was taken not to exceed the final concentration of DMSO>1% at any time of the experiment. Additionally, 1% DMSO was used as a negative control in untreated (Basal) cells. […] The cells are then washed and imaged (FIG. 1f).
For simultaneous imaging cells were treated with 500 nM NOckout^TGN for 30 min where last 10 min cells were co-incubated with 500 nM NOckout^PM. In order to achieve lowest signal (PTIO, FIG. 1e-f) or to achieve bleaching profile (PTIO, FIG. 3e) cells were pre-treated with 500 μM PTIO for 15 minutes. Images were captured on a Laser scanning confocal Leica SP8 microscope using 63×, 1.4UV NA objective. Desired excitation and emission wavelengths was achieved using white light laser along with notch filters and acousto-optical tunable filters. A488, DAR and A647 were imaged using the following settings—Alexa488 (λex=488 nm, λem=500 nm to 540 nm), DAR (λex=554 nm, λem=565 nm to 610 nm) and Alexa647 (λex=647 nm, λem=665 nm to 710 nm).
Image analysis was performed using Fiji (Schindelin, J. et al. Fiji: an open-source platform for biological-image analysis. Nat Methods 9, 676-682 (2012)). Auto-fluorescence was subtracted from images for ratiometric analysis. For representation, images were further processed by smooth and despeckle functions. In order to present G/B or G/R images, a mask for each image was constructed using Otsu thresholding method, and mask-multiplied images were used for division. The ROI plugin in Fiji was used to select either TGN (Alexa647 channel) or PM (Alexa488 channel) and these ROIs were recalled in DAR channel to measure intensity in all three channels.
Next, endogenous, basal NOS3 activity was estimated at each of these sub-cellular locations in T-47D cells without explicitly activating NOS3. To do this, the ratiometric NOckout^PM response, i.e. the G/B ratio, was first measured under conditions where cells were depleted of NO using the NO scavenger 2-phenyl-4,4,5,5-tetramethylimidazoline-1-oxyl 3-oxide (PTIO, 300 μM) (Goldstein, S., Russo, A. & Samuni, A. Reactions of PTIO and carboxy-PTIO with *NO, *NO2, and O2−*. J Biol. Chem. 278, 50949-50955 (2003)). […] These two extreme cases provide the minimum and maximum G/B signals afforded by NOckout^PM in the cell (FIG. 1e-f). The G/B values under any subsequent condition are normalized to the maximum G/B signal. […]

TLR-9 and TLR-21 = assay: Phagosomal NO in zebrafish microglia with NOckout^zCpG; type: in vivo
From the text: Zebrafish brain was imaged in the optic tectum using an upright Zeiss LSM-710 confocal microscope equipped with water immersion objectives (20×, or 40×). Zebrafish larvae (3-4 dpf were mounted dorsally in a 1.5% low-melting point agar-bed on a confocal imaging dish (3.5 cm glass bottom). E3-containing 0.003% MS-222 was present in the imaging dish though out the imaging section. For NOckout injected samples, images were acquired simultaneously in GFP, DAR, and A647N channels using excitation wavelengths 488 nm, […] from Argon-ion (488 nm), Helium-Neon (543 nm & 632 nm) laser sources respectively. pHrodo was imaged using the same settings as that of DAR.
Image analysis: A MATLAB based program called Findosome was used to calculate the (G/R) values of individual endosomes from the acquired images. […] For each ROI, the program calculates fluorescence intensities both in the normalizing channel (A647, R) as well as in the DAR (G) channel. […] From the results, (G/R) value for individual endosomes can be calculated. Phagosomal (G/R) values from the zebrafish microglia are calculated using Fiji software. […] Fluorescence intensities in A647 and DAR channels were calculated. […] For (G/R) ratio quantification experiments, only those vesicles that are present in both green (G) and red (R) channels were considered. […]

NOS2 = biological target: T2, NOS2 (Mus musculus, UniProt P29477); assay: In cellulo specificity of NOckout to NO in LPS primed J774A.1 cells; type: cell-based; conditions: LPS primed J774A.1 cells, 1400 W 10 μM
T2 construct: J774A.1 cells were treated with 1 μg/mL LPS for 12 h prior to the addition of NOckout; endogenous in cells; host or cells: J774A.1 macrophages primed with LPS
Description: Pharmacological inhibition: Pharmacological inhibition of different enzymes were performed by employing known inhibitors. […] Cells were bathed in inhibitors 1 h prior to the addition of NOckout probes during the specificity experiment performed in J774A.1 cells.
In cellulo specificity of NOckout to NO: In cellulo specificity of the NOckout probe towards NO^− was validated in J774A.1 cells. […] J774A.1 cells were treated with 1 μg/mL LPS for 12 h prior to the addition of NOckout (500 nM in HBSS) either in the presence or in absence of specific inhibitors. LPS addition was employed to induce the expression of NOS2NOX and MPO. […] After 90 minutes of incubation with the NOckout culture media was removed from the cells and three washes were performed using HBSS to remove extracellular NOckout before proceeding to the fluorescence imaging. […]
The in-cell specificity of NOckout can be evaluated by measuring the contribution of the reactive species produced by NOX, MPO and NOS2 to the observed fold change in G/R ratio upon LPS stimulation. […] As NOS2 activity is not pan-endosomal, specificity is given by quantifying the percentage of endosomes that show G/R values higher than the mean G/R value in endosomes of unstimulated, NOS2 inhibited cells, as the latter corresponds to basal endosomal NO levels (FIG. 6c).

TNF-α = TNF-α quantification by ELISA in J774A.1 cells; type: cell-based; conditions: 500 nM, 2 h
Description: TNF-α Quantification: To quantify the immunogenicity NOckout probes and the corresponding immunogen alone, ELISA for TNF-α was performed in J774A.1 cells. Briefly, J774A.1 cells cultured in DMEM were incubated with 500 nM NOckout sensors, CpG nucleotides, RNA, or LPS at 37° C. for 2 h. Postincubation 100 μL of extracellular medium from the culture was used to perform TNF-α quantification using ELISA kit (Cayman, catalog number 500850) according to manufacturers instructions. The calibration curve for TNF-α was generated using recombinant. TNF-α as per the vendor's instructions.
We treated J774A.1 cells with each PAMP motif, for example mCpG, zCpG, RNA, or iRNA and their corresponding NOckout display vairent and quantified TNFα in the extracellular milieu by enzyme-linked immunisorbent assay (ELISA) (FIG. 47). […] This is because, beyond 2 h in cell culture, the probe is degraded in lysosomes, likely by DNase II, NOckout probes therefore can reliably report on endosomal NO levels only up to 2 h postinternalization (FIG. 45).

murine TLR-9 = biological target: T3, murine TLR-9 (Mus musculus, UniProt Q9EQU3); assay: Endosomal NO in primary mouse microglia with NOckout^mCpG; type: cell-based; conditions: primary microglia, versus NOckout^mCpG, n=100 endosomes
T3 construct: endogenous in cells; host or cells: primary microglia from C57BL/6 mice
T3 sequence (Q9EQU3 26-1032): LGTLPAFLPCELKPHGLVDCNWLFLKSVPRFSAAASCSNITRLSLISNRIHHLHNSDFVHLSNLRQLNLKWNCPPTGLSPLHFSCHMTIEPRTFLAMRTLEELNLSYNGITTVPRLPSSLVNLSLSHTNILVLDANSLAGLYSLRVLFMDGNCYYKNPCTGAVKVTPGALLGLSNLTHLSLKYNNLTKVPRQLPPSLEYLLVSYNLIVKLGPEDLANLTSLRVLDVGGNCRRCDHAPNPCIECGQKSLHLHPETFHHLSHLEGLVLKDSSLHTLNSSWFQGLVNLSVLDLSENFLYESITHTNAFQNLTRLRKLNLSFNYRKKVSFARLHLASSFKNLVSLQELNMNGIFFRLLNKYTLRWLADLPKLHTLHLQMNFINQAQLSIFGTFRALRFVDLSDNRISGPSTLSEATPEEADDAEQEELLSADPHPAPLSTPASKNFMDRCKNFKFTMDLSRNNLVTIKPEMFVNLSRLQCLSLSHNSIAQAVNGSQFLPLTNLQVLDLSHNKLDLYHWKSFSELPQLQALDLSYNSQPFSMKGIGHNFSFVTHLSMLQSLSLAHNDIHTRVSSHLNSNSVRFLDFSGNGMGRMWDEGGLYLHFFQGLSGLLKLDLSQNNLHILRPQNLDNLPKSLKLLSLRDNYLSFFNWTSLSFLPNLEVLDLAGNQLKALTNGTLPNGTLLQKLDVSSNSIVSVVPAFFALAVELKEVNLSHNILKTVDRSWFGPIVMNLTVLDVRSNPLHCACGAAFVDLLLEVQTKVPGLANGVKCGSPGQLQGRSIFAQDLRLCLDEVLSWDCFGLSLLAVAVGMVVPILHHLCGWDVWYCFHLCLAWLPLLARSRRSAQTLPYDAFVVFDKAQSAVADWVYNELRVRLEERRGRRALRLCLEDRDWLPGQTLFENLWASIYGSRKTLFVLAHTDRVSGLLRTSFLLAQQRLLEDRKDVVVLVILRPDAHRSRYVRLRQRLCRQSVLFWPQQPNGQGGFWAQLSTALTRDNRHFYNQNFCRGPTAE
From the text: Image analysis: A MATLAB based program called Findosome was used to calculate the (G/R) values of individual endosomes from the acquired images. Maximum Z-projected images created using Fiji (NIH) were fed to Findosome to pick endosomal compartments as ROI corresponding to individual endosomes based on the A647 channel intensity. For each ROI, the program calculates fluorescence intensities both in the normalizing channel (A647, R) as well as in the DAR (G) channel. The results were exported as an excel file. From the results, (G/R) value for individual endosomes can be calculated. Phagosomal (G/R) values from the zebrafish microglia are calculated using Fiji software. Images were imported to Fiji and maximum Z-projected images were created. ROI were manually drawn around clearly identifiable phagosomes using the normalizing channel A647 intensity. Fluorescence intensities in A647 and DAR channels were calculated. G/R values are either represented as heat map images using Fiji or as bar graph using Origin software. Intracellular measurements of (G/R) values was performed in GFP colocalized microglia. For (G/R) ratio quantification experiments, only those vesicles that are present in both green (G) and red (R) channels were considered. […]

Molecule	S-nitrosylation at the Golgi [1]	Golgi fragmentation by treatment alone (T-47D cells)	G/B and G/R values of NOckout probes (NOS3 activity) (NOS3)	reduction of phagosomal G/R versus NOckout^zCpG (TLR-9 and TLR-21)	reduction of NOckout signal (NOS2)	TNF-α in the extracellular milieu (TNF-α)	reduction of NO-rich endosomes (murine TLR-9)
CC(=N)NCc1cccc(CN)c1 [1400 W]	no change	none of these treatments fragmented the Golgi	no effect	~50%	~50%	–	–
NOckout^mGpC: control of NOckout^mCpG with non-immunostimulatory GpC motifs (TGCTGTCTGGTGTGCAGTGTTGATTTTCCATGAGCTTCCTGACCTT; DNA nanodevice strand, phosphorothioate ODN overhang and dyes, pattern not given here)	–	–	–	–	–	dramatic reduction in TNF-α levels	40%
